From US6605628B1, “Method of using 5-(arysulfonyl)-, 5-(arylsulfanyl)-and 5-(arylsulfanyl)thiazolidine-2,4-diones for inhibition of farnesyl-protein transferase” (Wyeth Holdings Corporation, priority 2001, dated 2003)

Key:
FPTase [1] = molecular target: T1, FPTase (Homo sapiens, UniProt P49354+P49356); assay: in vitro FTase Inhibition Assay, H-Ras used as substrate for farnesylation; type: biochemical; conditions: Table I, read-out: IC50 H-Ras*
FPTase [2] = molecular target: T1, FPTase; assay: in vitro FTase Inhibition Assay, K-Ras used as substrate for farnesylation; type: biochemical; conditions: Table I

IC50 (FPTase [1]) [nM]	IC50 (FPTase [2]) [µM]	melting point [°C]	Structure (SMILES)
150	> 10	133 to 135	COc1cccc(S(=O)(=O)C2(CCCC#Cc3cccs3)SC(=O)NC2=O)c1 (stereo not drawn) [Example 164, 5-(3-Methoxybenzenesulfonyl)-5-(5-thiophen-2-yl-pent-4-ynyl)-thiazolidine-2,4-dione]
150	5.3	60 to 66	COc1ccc(S(=O)(=O)C2(CCCC#Cc3cccs3)SC(=O)NC2=O)cc1 (stereo not drawn) [Example 166, 5-(4-Methoxybenzenesulfonyl)-5-(5-thiophen-2-yl-pent-4-ynyl)-thiazolidine-2,4-dione]
100	1.8	179 to 180	Cc1ccc(S(=O)(=O)C2(CC#Cc3ccc(-c4ccccc4)cc3)SC(=O)NC2=O)cc1 (stereo not drawn) [Example 169, 5-(3-Biphenyl-4-yl-prop-2-ynyl)-5-(toluene-4-sulfonyl)-thiazolidine-2,4-dione]
380	4.7	64 to 66	Cc1ccc(S(=O)(=O)C2(CC#Cc3ccc(Oc4ccccc4)cc3)SC(=O)NC2=O)cc1 (stereo not drawn) [Example 170, 5-[3-(4-Phenoxyphenyl)prop-2-ynyl]-5-(toluene-4-sulfonyl)-thiazolidine-2,4-dione]
